Laboratory results: PubChem BioAssay (NCI)
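The compound was tested at five concentrations on cells cultured in 96-well plates, with a 48-hour exposure period. The concentration for full growth arrest is given as TGI.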

How the values were obtained:
Assay in all cases: DTP human tumour cell line panel, 48 h
[1] = tested on: IGROV1 ovarian
[2] = tested on: DU-145 prostate
[3] = tested on: OVCAR-8 ovarian
[4] = tested on: RXF 393 renal
[5] = tested on: HCT-116 colon
[6] = tested on: HOP-62 NSCLC
[7] = tested on: LOX IMVI melanoma
[8] = tested on: MOLT-4 leukemia
[9] = tested on: PC-3 prostate
[10] = tested on: SN12C renal
[11] = tested on: M14 melanoma
[12] = tested on: CCRF-CEM leukemia
[13] = tested on: SK-OV-3 ovarian
[14] = tested on: MDA-N
[15] = tested on: 786-0 renal
[16] = tested on: SF-539 CNS
[17] = tested on: NCI/ADR-RES ovarian
[18] = tested on: K-562 leukemia
[19] = tested on: SNB-19 CNS
[20] = tested on: SNB-75 CNS
[21] = tested on: MDA-MB-435
[22] = tested on: SK-MEL-28 melanoma
[23] = tested on: A498 renal
[24] = tested on: NCI-H226 lung
[25] = tested on: HT29 colon
[26] = tested on: MDA-MB-231 breast
[27] = tested on: SF-268 CNS
[28] = tested on: RPMI-8226 leukemia
[29] = tested on: OVCAR-5 ovarian
[30] = tested on: TK-10 renal
[31] = tested on: ACHN renal
[32] = tested on: MCF7 breast
[33] = tested on: HCC-2998 colon
[34] = tested on: COLO 205 colon
[35] = tested on: NCI-H460 lung
[36] = tested on: SW-620 colon
[37] = tested on: OVCAR-3 ovarian
[38] = tested on: HCT-15 colon
[39] = tested on: EKVX NSCLC
[40] = tested on: CAKI-1 renal
[41] = tested on: NCI-H522 lung
[42] = tested on: SK-MEL-2 melanoma
[43] = tested on: HL-60(TB) leukemia
[44] = tested on: A549 NSCLC
[45] = tested on: HS 578T breast
[46] = tested on: UACC-62 melanoma
[47] = tested on: SF-295 CNS
[48] = tested on: MALME-3M melanoma
[49] = tested on: SR leukemia
[50] = tested on: BT-549 breast
[51] = tested on: T-47D breast
[52] = tested on: HOP-92 NSCLC
[53] = tested on: SK-MEL-5 melanoma
[54] = tested on: KM12 colon
[55] = tested on: U251 CNS
[56] = tested on: UACC-257 melanoma
[57] = tested on: OVCAR-4 ovarian
[58] = tested on: NCI-H23 lung
[59] = tested on: UO-31 renal

Nc1cc(-c2ccc(Cl)cc2)nn1-c1nc2ccccc2nc1-c1ccccc1
TGI [1]: > 100 µM
TGI [2]: > 100 µM
TGI [3]: > 100 µM
TGI [4]: > 100 µM
TGI [5]: > 100 µM
TGI [6]: > 100 µM
TGI [7]: > 100 µM
TGI [8]: > 100 µM
TGI [9]: > 100 µM
TGI [10]: > 100 µM
TGI [11]: > 100 µM
TGI [12]: > 100 µM
TGI [13]: > 100 µM
TGI [14]: > 100 µM
TGI [15]: > 100 µM
TGI [16]: > 100 µM
TGI [17]: > 100 µM
TGI [18]: > 100 µM
TGI [19]: > 100 µM
TGI [20]: 64.9 µM
TGI [21]: > 100 µM
TGI [22]: > 100 µM
TGI [23]: > 100 µM
TGI [24]: > 100 µM
TGI [25]: > 100 µM
TGI [26]: > 100 µM
TGI [27]: > 100 µM
TGI [28]: > 100 µM
TGI [29]: > 100 µM
TGI [30]: > 100 µM
TGI [31]: > 100 µM
TGI [32]: > 100 µM
TGI [33]: > 100 µM
TGI [34]: > 100 µM
TGI [35]: > 100 µM
TGI [36]: > 100 µM
TGI [37]: > 100 µM
TGI [38]: > 100 µM
TGI [39]: > 100 µM
TGI [40]: > 100 µM
TGI [41]: > 100 µM
TGI [42]: > 100 µM
TGI [43]: > 100 µM
TGI [44]: > 100 µM
TGI [45]: > 100 µM
TGI [46]: > 100 µM
TGI [47]: > 100 µM
TGI [48]: > 100 µM
TGI [49]: > 100 µM
TGI [50]: > 100 µM
TGI [51]: > 100 µM
TGI [52]: > 100 µM
TGI [53]: > 100 µM
TGI [54]: > 100 µM
TGI [55]: > 100 µM
TGI [56]: > 100 µM
TGI [57]: > 100 µM

O[C@H]1[C@H]2[C@H](O)C[C@H](CCOCc3ccccc3)CN2C[C@H]1O
TGI [1]: > 100 µM
TGI [2]: > 100 µM
TGI [3]: > 100 µM
TGI [4]: > 100 µM
TGI [5]: > 100 µM
TGI [58]: > 100 µM
TGI [7]: > 100 µM
TGI [8]: > 100 µM
TGI [9]: > 100 µM
TGI [10]: > 100 µM
TGI [11]: > 100 µM
TGI [12]: > 100 µM
TGI [13]: > 100 µM
TGI [14]: > 100 µM
TGI [59]: > 100 µM
TGI [15]: > 100 µM
TGI [16]: > 100 µM
TGI [17]: > 100 µM
TGI [18]: > 100 µM
TGI [19]: > 100 µM
TGI [20]: > 100 µM
TGI [21]: > 100 µM
TGI [22]: > 100 µM
TGI [23]: > 100 µM
TGI [24]: > 100 µM
TGI [25]: > 100 µM
TGI [26]: > 100 µM
TGI [27]: > 100 µM
TGI [28]: > 100 µM
TGI [29]: > 100 µM
TGI [31]: > 100 µM
TGI [32]: > 100 µM
TGI [33]: > 100 µM
TGI [34]: > 100 µM
TGI [35]: > 100 µM
TGI [36]: > 100 µM
TGI [37]: > 100 µM
TGI [38]: > 100 µM
TGI [39]: > 100 µM
TGI [40]: > 100 µM
TGI [41]: > 100 µM
TGI [42]: > 100 µM
TGI [43]: > 100 µM
TGI [44]: > 100 µM
TGI [45]: > 100 µM
TGI [46]: > 100 µM
TGI [47]: > 100 µM
TGI [48]: > 100 µM
TGI [49]: > 100 µM
TGI [50]: > 100 µM
TGI [51]: > 100 µM
TGI [52]: > 100 µM
TGI [53]: > 100 µM
TGI [54]: > 100 µM
TGI [55]: > 100 µM
TGI [56]: > 100 µM
TGI [57]: > 100 µM
